Source: a compilation of properties of binary mixtures (doi:10.1016/j.molliq.2021.117163)

Assay: xn = mol fraction of the nth substance listed
Settings: 298.15 K, 100 kPa

A viscosity (x2 = 0) of 2.7 mPa·s, a viscosity (x2 = 0.05) of 3.6 mPa·s and a viscosity (x2 = 0.1) of 4.4 mPa·s were found for `CC1COC(=O)O1` (stereo unspecified) + CCCC[n+]1ccn(C)c1.F[B-](F)(F)F in this work. For the same compound, the viscosity (x2 = 0.3) was 10 mPa·s, the viscosity (x2 = 0.4) was 15 mPa·s and the viscosity (x2 = 0.5) was 22 mPa·s. For the same compound, the viscosity (x2 = 0.6) was 31.4 mPa·s, the viscosity (x2 = 0.7) was 44.5 mPa·s and the viscosity (x2 = 0.8) was 63.5 mPa·s. For the same compound, the viscosity (x2 = 0.9) was 81.3 mPa·s.
A viscosity (x1 = 1) of 107.2 mPa·s was found for `CCCC[n+]1ccn(C)c1.F[B-](F)(F)F` + CC1COC(=O)O1 in this work.
